{"source": "paper PMC3898987", "about": "(Bioorganic & Medicinal Chemistry, 2013)", "key": {"[1]": {"target": "T1, 5-HT3AB receptor, 5-HT3B subunit W90C (Homo sapiens, UniProt O95264+P46098, W83C)", "T1 sequence (P46098 24-478)": "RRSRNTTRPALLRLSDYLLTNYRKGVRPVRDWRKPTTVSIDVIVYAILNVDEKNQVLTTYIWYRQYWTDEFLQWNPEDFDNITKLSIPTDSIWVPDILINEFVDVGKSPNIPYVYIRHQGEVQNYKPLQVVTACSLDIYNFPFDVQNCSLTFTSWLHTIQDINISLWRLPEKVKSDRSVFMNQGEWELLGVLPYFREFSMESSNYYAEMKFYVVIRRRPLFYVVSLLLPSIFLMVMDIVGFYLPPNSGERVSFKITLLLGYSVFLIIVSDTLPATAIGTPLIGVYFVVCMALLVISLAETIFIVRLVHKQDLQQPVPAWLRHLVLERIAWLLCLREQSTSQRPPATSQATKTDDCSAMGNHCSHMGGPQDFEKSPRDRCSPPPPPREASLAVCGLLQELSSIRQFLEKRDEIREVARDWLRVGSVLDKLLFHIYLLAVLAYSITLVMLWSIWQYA", "T1 sequence (O95264 22-441 W83C)": "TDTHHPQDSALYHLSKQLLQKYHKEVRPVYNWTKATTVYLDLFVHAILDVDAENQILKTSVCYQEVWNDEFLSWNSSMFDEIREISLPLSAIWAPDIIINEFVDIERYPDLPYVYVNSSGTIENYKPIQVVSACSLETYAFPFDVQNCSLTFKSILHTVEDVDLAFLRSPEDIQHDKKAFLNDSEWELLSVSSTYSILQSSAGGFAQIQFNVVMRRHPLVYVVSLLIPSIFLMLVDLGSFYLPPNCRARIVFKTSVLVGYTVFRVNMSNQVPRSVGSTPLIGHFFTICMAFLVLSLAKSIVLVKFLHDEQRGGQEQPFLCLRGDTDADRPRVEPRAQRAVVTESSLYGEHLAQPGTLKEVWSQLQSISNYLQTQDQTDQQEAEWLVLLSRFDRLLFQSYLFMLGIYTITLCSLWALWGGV", "assay": "cell-based", "method": "Human embryonic kidney (HEK) 293 cells were cultured on 90 mm tissue culture plates at 37 °C and 7% CO2 in a humidified atmosphere. They were grown in DMEM:F12 (Dulbecco’s Modified Eagle’s Medium/Nutrient Mix F12 (1:1)) with GlutaMAX I™ containing 10% fetal calf serum and passaged when confluent. […] For FlexStation assays, transfected cells were plated on 96-well plates and incubated 1–2 days before assay.\n(§1) Fluorometric studies were undertaken using a FlexStation® (Molecular Devices, Sunnyvale, CA, USA) as previously described.[11]\n(§2) Fluorescence was measured every 2 s for 200 s. […] Concentration–response and inhibition curves were obtained for each mutant, and the fluorescence values were normalized to the maximal response."}, "[2]": {"target": "T2, 5-HT3A receptor Y73F (Homo sapiens, UniProt P46098, Y68F)", "T2 sequence (P46098 24-478 Y68F)": "T1 sequence (P46098 24-478) with Y45F", "assay": "radioligand saturation binding, transfected HEK293 membranes", "conditions": "[3H]-palonosetron saturation, 5-HT3A Y73F, 4 °C, 24 h", "method": "(§3) Human embryonic kidney (HEK) 293 cells were cultured on 90 mm tissue culture plates at 37 °C and 7% CO2 in a humidified atmosphere. They were grown in DMEM:F12 (Dulbecco’s Modified Eagle’s Medium/Nutrient Mix F12 (1:1)) with GlutaMAX I™ containing 10% fetal calf serum and passaged when confluent. For radioligand binding studies, cells in 90 mm dishes were transfected at 60–70% confluency using polyethyleneimine and incubated for 3–4 days before use. For FlexStation assays, transfected cells were plated on 96-well plates and incubated 1–2 days before assay. […]\n(§4) Eight-point binding assays were performed to produce saturation binding curves. […] Radioactive counts were measured using a Beckman LS6000SC liquid scintillation counter (Fullerton, California, USA).\n(§5) Data were analyzed by iterative curve fitting using GraphPad Prism v5 (San Diego, CA) according to the following equation: B=Bmax[L]^n/kdn+[L]^n where B is the amount of bound radioligand, Bmax is the maximum specific binding at equilibrium, [L] is the concentration of radioligand, Kd is the equilibrium dissociation constant of the radioligand, and n is the Hill coefficient."}, "[3]": {"target": "T3, WT 5-HT3A receptor (Homo sapiens, UniProt P46098)", "T3 sequence (P46098 24-478)": "T1 sequence (P46098 24-478)", "assay": "radioligand saturation binding, transfected HEK293 membranes", "conditions": "[3H]-palonosetron saturation, 4 °C, 24 h", "method": "as §3, §4, §5"}, "[4]": {"target": "T4, WT 5-HT3AB receptor (Homo sapiens, UniProt O95264+P46098)", "T4 sequence (P46098 24-478)": "T1 sequence (P46098 24-478)", "T4 sequence (O95264 22-441)": "T1 sequence (O95264 22-441 W83C) with C62W", "assay": "radioligand saturation binding, transfected HEK293 membranes", "conditions": "[3H]-palonosetron saturation, 4 °C, 24 h", "method": "as §3, §4, §5"}, "[5]": {"target": "T5, 5-HT3AB receptor, 5-HT3B subunit Y143A (Homo sapiens, UniProt O95264+P46098, Y136A)", "T5 sequence (P46098 24-478)": "T1 sequence (P46098 24-478)", "T5 sequence (O95264 22-441 Y136A)": "T1 sequence (O95264 22-441 W83C) with C62W, Y115A", "assay": "cell-based", "method": "For FlexStation assays, transfected cells were plated on 96-well plates and incubated 1–2 days before assay.\nas §1, §2"}}, "note": "Where a chain is given by its changes, count along the chain named.", "data": [{"smiles": "O=C1c2cccc3c2[C@H](CCC3)CN1[C@@H]1CN2CCC1CC2", "note": "[Palonosetron]", "values": [{"measurement": "IC50", "setting": "[1]", "result": "0.37 ± 0.1", "unit": "nM"}, {"measurement": "Kd", "setting": "[2]", "result": "0.25 ± 0.04", "unit": "nM"}, {"measurement": "Kd", "setting": "[3]", "result": "0.32 ± 0.07", "unit": "nM"}, {"measurement": "Kd", "setting": "[4]", "result": "0.18 ± 0.02", "unit": "nM"}, {"measurement": "IC50", "setting": "[5]", "result": "0.38 ± 0.05", "unit": "nM"}]}]}
